Data as given in paper PMC12071598, “Piperazine-Substituted Pyranopyridines Exhibit Antiproliferative Activity and Act as Inhibitors of HBV Virion Production” (International Journal of Molecular Sciences, 2025).
Like-named read-outs stand apart in the source and are kept apart here.

Experiments:
DU145 [1] = conditions: discussed for DU145; cited from earlier work
hepatitis B virus (HBV) = assay: microbe, parasite or virus in culture; assay type: cell-based; conditions: for log reduction at 1 µM / log reduction at 10 µM: Hepatitis B virus, 144 h; for Extracellular HBV DNA (Δlog10): 1 µM, 6 days treatment, conditioned medium (virion production)
HSV-1 = assay: microbe, parasite or virus in culture; assay type: cell-based, herpes simplex virus type 1; conditions: Human alphaherpesvirus 1, 48 h, read-out: HSV-1 IC50, µM
HepaRG = assay: Cytotoxicity towards non-tumor differentiated HepaRG cells, MTT; assay type: cell-based, human; conditions: concentration decreasing number of viable cells by 50%; for IC50: Homo sapiens
K562 = assay: Antiproliferative activity, MTT assay, K562; assay type: cell-based; conditions: Homo sapiens, K562 chronic myeloid leukemia, 72 h
HeLa = assay: Antiproliferative activity, MTT assay, HeLa; assay type: cell-based; conditions: Homo sapiens, HeLa cervix carcinoma, 72 h
NDV = assay: microbe, parasite or virus in culture; assay type: cell-based, Newcastle disease virus; conditions: avian paramyxovirus 1, 48 h, read-out: NDV IC50, µM
[2] = Cytotoxicity by MTS assay in MDCK cells; assay type: cell-based; conditions: dog, read-out: Influenza A Virus CC50
Description: Production of influenza A virus (H1N1) stock and its infection of MDCK cells, as well as infection of Vero E6 cells with SARS-CoV-2, were described previously. Cytotoxicity of the compounds towards MDCK and VeroE6 cells was assessed by seeding 18,000 cells/well of […] plates in 0.1 mL DMEM, treating with the compounds for 66 h, and measuring cell viability by MTS assay. As positive controls, oseltamivir and N-hydroxicytidine were used (obtained from Sigma).
The compounds were added at non-toxic concentrations in serum-free DMEM to the respective cells; one hour later, the serial 10-fold dilutions of influenza virus or SARS-CoV-2 were added in serum-free medium, and antiviral activity was determined by the reduction in the infectious titer of the virus by cytopathic action (CPE). Calculation of 50% cytotoxic concentration (CC50) and 50% effective concentration (IC50) was performed by standard methods using Microsoft Excel 5.0 and GraphPad Prism 8 (GraphPad Software Inc., Boston, MA, USA).

VV = assay: microbe, parasite or virus in culture; assay type: cell-based; conditions: Orthopoxvirus vaccinia, 48 h, read-out: VV IC50, µM
A549 = assay: Antiproliferative activity, MTT assay, A549; assay type: cell-based; conditions: Homo sapiens, A549 lung carcinoma, 72 h
SARS-CoV-2 = assay: microbe, parasite or virus in culture; assay type: cell-based
PV1 = assay: microbe, parasite or virus in culture; assay type: cell-based, poliovirus type 1; conditions: Enterovirus C, 48 h, read-out: PV1 IC50, µM
DU145 [3] = assay: Antiproliferative activity, MTT assay, DU145; assay type: cell-based; conditions: Homo sapiens, DU-145, DU145 prostate carcinoma, 72 h
SH-SY5Y = assay: Antiproliferative activity, crystal violet staining, SH-SY5Y; assay type: cell-based; conditions: Homo sapiens, SH-SY5Y neuroblastoma, 72 h
Influenza A virus = assay: microbe, parasite or virus in culture; assay type: cell-based, influenza A virus (H1N1)
A549 cells = assay: Intracellular ROS assay, DCFH2-DA in A549 cells; assay type: cell-based; conditions: A549, 10 µM, 72 h
From the text: As cell death is often triggered by increased production of reactive oxygen species (ROS), the next step was to evaluate if our compounds act as pro-oxidants. ROS production was accessed using cell-permeable redox sensitive DCFH2-DA dye. […] As one of the main sites of ROS production is mitochondria, we also evaluated their membrane potential during treatment with either DO11-46 or DO11-48. […] Lysosome activation often accompany late stages of apoptosis, which is in good accordance with our data on the induction of caspase3/7 activity.
Pro-oxidant activity of the compounds was studied by quantification of ROS production using a cell-permeable fluorogenic probe 2′,7′-dichlorodihydrofluorescein diacetate (DCFH2-DA). A549 cells were seeded on a 48-well plate at a density of 10,000 cells/well. Twenty-four hours later, the compounds were added to 10 µM concentration in quadruplicate, and the cells were kept for 72 h. As a positive control, A549 cells were treated with 1 mM H2O2 for 2 h prior analysis. Then, media were replaced with the fresh FBS-lacking DMEM supplemented with 25 µM DCFH2-DA. After 45 min incubation, the cells were washed 10 times with 500 µL PBS, resuspended in 200 µL PBS and transferred to a black 96-well plate. The fluorescence intensities (FLIs) were measured using CHAMELEON V microplate reader with excitation at 485 nm and emission at 535 nm.

[4] = read-out: Extracellular HBV DNA (Δlog10)
[5] = read-out: Intracellular Total HBV RNA (Δlog10)
[6] = Severe acute respiratory syndrome coronavirus 2, Vero C1008, read-out: SARS-CoV-2 IC50, µM

Row | SMILES | log reduction at 1 µM (hepatitis B virus (HBV); [4]) | log reduction at 10 µM (hepatitis B virus (HBV); [4]) | log reduction at 1 µM (hepatitis B virus (HBV); [5]) | log reduction at 10 µM (hepatitis B virus (HBV); [5]) | IC50 (HSV-1) [µM] | IC50 (HepaRG) [µM] | IC50 (K562) [µM] | IC50 (HeLa) [µM] | IC50 (NDV) [µM] | CC50 at 66 h [2] [µM] | IC50 (VV) [µM] | IC50 (A549) [µM] | IC50 (SARS-CoV-2; [6]) [µM] | IC50 (PV1) [µM] | IC50 (DU145 [3]) [µM] | IC50 (SH-SY5Y) [µM] | SARS-CoV-2 Δlgmax (SARS-CoV-2) | Influenza A Virus Δlgmax (Influenza A virus) | further results
1 | FC(F)(F)c1ccc(CN2CCNCC2)cc1 [[4-(trifluoromethyl)benzyl]piperazine] |  |  |  |  |  |  |  |  |  |  |  |  |  |  |  |  |  |  | GI50 (DU145 [1]): 1.6 µM
2 | Nc1ccn([C@@H]2CS[C@H](CO)O2)c(=O)n1 [3TC, Lamivudine, reference compound] | 0.93 | 1.04 | < 0.5 | < 0.5 |  |  |  |  |  |  |  |  |  |  |  |  |  |  | 
3 | CC1(C)Cc2c(C#N)c(SCC(N)=O)nc(N3CCNCC3)c2CO1 [DO11-37, 2-[(5-Cyano-3,3-dimethyl-8-piperazin-1-yl-3,4-dihydro-1H-pyrano[3,4-c]pyridin-6-yl)thio]acetamide] | 1.97 ± 0.03 | 2.32 ± 0.16 | < 0.5 | < 0.5 | > 300 | 968 ± 87.8 | 91.4 ± 29.6 | 133 ± 38 | > 300 | 1680 | > 300 | 294 ± 35.9 | > 200 | > 300 | 225 ± 52.4 | 99.4 ± 21.4 |  |  | IC50 (µM) HepaRG (HepaRG): almost non-toxic; Extracellular HBV DNA (Δlog10) (hepatitis B virus (HBV)): significantly reduced levels of virion production
4 | O=c1nc(NO)ccn1[C@@H]1O[C@H](CO)[C@@H](O)[C@H]1O [N-HydroxyC, N-hydroxicytidine, reference compound] |  |  |  |  |  |  |  |  |  |  |  |  |  |  |  |  | 5.0 |  | IC50 (SARS-CoV-2; read-out: SARS-CoV-2 IC50): 0.5 µM
5 | Fc1ccc(C(c2ccc(F)cc2)N2CCNCC2)cc1 [1-bis(4-fluorophenyl)methylpiperazine] |  |  |  |  |  |  |  |  |  |  |  |  |  |  |  |  |  |  | GI50 (DU145 [1]): 1.8 µM
6 | CC(=O)c1ccc(NC(=O)CSc2nc(N3CCNCC3)c3c(c2C#N)CC(C)(C)OC3)cc1 [DO11-50, N-(4-acetylphenyl)-2-[(5-cyano-3,3-dimethyl-8-piperazin-1-yl-3,4-dihydro-1H-pyrano[3,4-c]pyridin-6-yl)thio]acetamide] | < 0.5 | < 0.5 | < 0.5 | < 0.5 | > 5 | 42.4 ± 8.3 | 45.6 ± 20 | 74.5 ± 3.5 | > 5 | 1270 | > 5 | 45.8 ± 12.6 | > 15 | > 5 | 26.7 ± 8.4 | 13.2 ± 4.3 | 0 | 0 | 
7 | CCOC(=O)C1=C[C@@H](OC(CC)CC)[C@H](NC(C)=O)[C@@H](N)C1 [Oseltamivir, reference compound] |  |  |  |  |  |  |  |  |  | > 10 |  |  |  |  |  |  |  | 6.0 | IC50 (Influenza A virus; Influenza A virus, MDCK, read-out: Influenza A Virus IC50, µM): 0.02 µM
8 | O=c1[nH]cc(F)c(=O)[nH]1 [5-Fluorouracil, reference compound] |  |  |  |  |  |  | 1.3 ± 0.3 | 1.2 ± 0.3 |  |  |  |  |  |  |  | 1.5 ± 0.2 |  |  | 
9 | CNC(=O)c1cc(Oc2ccc(NC(=O)Nc3ccc(Cl)c(C(F)(F)F)c3)cc2)ccn1 [Sorafenib, reference compound] |  |  |  |  |  | > 100 |  |  |  |  |  |  |  |  |  | 40 ± 10 |  |  | 
10 | CC1(C)Cc2c(C#N)c(SCc3ccccc3Cl)nc(N3CCNCC3)c2CO1 [DO11-42, 6-[(2-Chlorobenzyl)thio]-3,3-dimethyl-8-piperazin-1-yl-3,4-dihydro-1H-pyrano[3,4-c]pyridine-5-carbonitrile] | 2.52 ± 0.36 | 2.31 ± 0.29 | < 0.5 | 0.53 ± 0.31 | > 7.5 | 24.5 ± 2.8 | 1.5 ± 0.8 | 1.9 ± 0.3 | > 7.5 | 440 | > 7.5 | 7 ± 1.9 | > 15 | > 7.5 | 1.3 ± 0.2 | 4.5 ± 1.8 | 0 | 0.5 | ROS generation (A549 cells): significantly increased ROS generation; Extracellular HBV DNA (Δlog10) (hepatitis B virus (HBV)): significantly reduced levels of virion production
